From PubChem BioAssay (NCI)
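Exposure lasted 48 hours, with cells grown in 96-well plates and compounds tested at five concentrations. The concentration for 50% growth inhibition is given as GI50. The concentration for full growth arrest is given as TGI.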

What was measured:
Assay in all cases: DTP human tumour cell line panel, 48 h; in the data active = GI50 below about 0.43 µM; inactive = the rest
HOP-62 NSCLC = system: HOP-62 NSCLC
RXF 393 renal = system: RXF 393 renal
ACHN renal = system: ACHN renal
NCI-H460 lung = system: NCI-H460 lung
OVCAR-3 ovarian = system: OVCAR-3 ovarian
T-47D breast = system: T-47D breast
HOP-92 NSCLC = system: HOP-92 NSCLC
HCT-116 colon = system: HCT-116 colon
HT29 colon = system: HT29 colon
SK-MEL-5 melanoma = system: SK-MEL-5 melanoma
CAKI-1 renal = system: CAKI-1 renal
SF-268 CNS = system: SF-268 CNS
SN12C renal = system: SN12C renal
M14 melanoma = system: M14 melanoma
UO-31 renal = system: UO-31 renal
MDA-MB-435 = system: MDA-MB-435
U251 CNS = system: U251 CNS
MDA-MB-231 breast = system: MDA-MB-231 breast
HCT-15 colon = system: HCT-15 colon
UACC-62 melanoma = system: UACC-62 melanoma
TK-10 renal = system: TK-10 renal
MCF7 breast = system: MCF7 breast
HCC-2998 colon = system: HCC-2998 colon
SNB-19 CNS = system: SNB-19 CNS
NCI-H522 lung = system: NCI-H522 lung
786-0 renal = system: 786-0 renal
SW-620 colon = system: SW-620 colon
OVCAR-5 ovarian = system: OVCAR-5 ovarian
NCI/ADR-RES ovarian = system: NCI/ADR-RES ovarian
BT-549 breast = system: BT-549 breast
OVCAR-4 ovarian = system: OVCAR-4 ovarian
COLO 205 colon = system: COLO 205 colon
MALME-3M melanoma = system: MALME-3M melanoma
LOX IMVI melanoma = system: LOX IMVI melanoma
IGROV1 ovarian = system: IGROV1 ovarian
CCRF-CEM leukemia = system: CCRF-CEM leukemia
SNB-75 CNS = system: SNB-75 CNS
SK-OV-3 ovarian = system: SK-OV-3 ovarian
HL-60(TB) leukemia = system: HL-60(TB) leukemia
DU-145 prostate = system: DU-145 prostate
RPMI-8226 leukemia = system: RPMI-8226 leukemia
MOLT-4 leukemia = system: MOLT-4 leukemia
OVCAR-8 ovarian = system: OVCAR-8 ovarian
NCI-H23 lung = system: NCI-H23 lung
SF-295 CNS = system: SF-295 CNS
A549 NSCLC = system: A549 NSCLC
EKVX NSCLC = system: EKVX NSCLC
KM12 colon = system: KM12 colon
SK-MEL-28 melanoma = system: SK-MEL-28 melanoma
SK-MEL-2 melanoma = system: SK-MEL-2 melanoma
NCI-H226 lung = system: NCI-H226 lung
HS 578T breast = system: HS 578T breast
UACC-257 melanoma = system: UACC-257 melanoma
K-562 leukemia = system: K-562 leukemia
SF-539 CNS = system: SF-539 CNS
PC-3 prostate = system: PC-3 prostate
A498 renal = system: A498 renal

CCOC(=O)CCC(NC(=O)c1ccc(Sc2nc3cc(N)cc(N)c3nc2-c2ccccc2)cc1)C(=O)OCC (stereo not drawn)
35.1 µM: TGI (MDA-MB-231 breast)
> 63 µM: TGI (OVCAR-8 ovarian)
> 65.9 µM: TGI (NCI-H226 lung)
44.5 µM: TGI (SN12C renal)
24.5 µM: TGI (K-562 leukemia)
17 µM: TGI (HCC-2998 colon)
46.2 µM: TGI (HOP-92 NSCLC)
53 µM: TGI (SK-OV-3 ovarian)
72.4 µM: TGI (SK-MEL-2 melanoma)
> 58 µM: TGI (NCI-H23 lung)
> 40.6 µM: TGI (U251 CNS)
> 89.8 µM: TGI (RPMI-8226 leukemia)
63.8 µM: TGI (SNB-75 CNS)
> 36.8 µM: TGI (SF-295 CNS)
inactive: GI50 (HOP-62 NSCLC) 2.23 µM | GI50 (RXF 393 renal) 3 µM | GI50 (ACHN renal) 1.3 µM | GI50 (NCI-H460 lung) 3.05 µM | GI50 (OVCAR-3 ovarian) 0.73 µM | GI50 (T-47D breast) > 53.9 µM | GI50 (HOP-92 NSCLC) 2.74 µM | GI50 (HCT-116 colon) 1.3 µM | GI50 (HT29 colon) 0.755 µM | GI50 (SK-MEL-5 melanoma) 1.71 µM | GI50 (CAKI-1 renal) 2.03 µM | GI50 (SF-268 CNS) 2.18 µM | GI50 (SN12C renal) 17.7 µM | GI50 (M14 melanoma) 3.34 µM | GI50 (UO-31 renal) 4.78 µM | GI50 (MDA-MB-435) 11.1 µM | GI50 (U251 CNS) 1.02 µM | GI50 (MDA-MB-231 breast) 7.96 µM | GI50 (HCT-15 colon) 1.8 µM | GI50 (UACC-62 melanoma) 1.03 µM | GI50 (TK-10 renal) 22.4 µM | GI50 (MCF7 breast) 0.626 µM | GI50 (HCC-2998 colon) 4.73 µM | GI50 (SNB-19 CNS) 4.77 µM | GI50 (NCI-H522 lung) 2.76 µM | GI50 (786-0 renal) 4.72 µM | GI50 (SW-620 colon) 2.38 µM | GI50 (OVCAR-5 ovarian) 60.5 µM | GI50 (NCI/ADR-RES ovarian) 21.6 µM | GI50 (BT-549 breast) 2.3 µM | GI50 (OVCAR-4 ovarian) 2.28 µM | GI50 (COLO 205 colon) 2.71 µM | GI50 (MALME-3M melanoma) 19.6 µM | GI50 (LOX IMVI melanoma) 0.48 µM | GI50 (IGROV1 ovarian) 6.91 µM | GI50 (CCRF-CEM leukemia) 1.31 µM | GI50 (SNB-75 CNS) 32.2 µM | GI50 (SK-OV-3 ovarian) 2.83 µM | GI50 (DU-145 prostate) 38.2 µM | GI50 (RPMI-8226 leukemia) 1.62 µM | GI50 (MOLT-4 leukemia) 0.726 µM | GI50 (OVCAR-8 ovarian) 2.78 µM | GI50 (NCI-H23 lung) 2.29 µM | GI50 (SF-295 CNS) 0.939 µM | GI50 (A549 NSCLC) 2.9 µM | GI50 (EKVX NSCLC) 13.7 µM | GI50 (KM12 colon) 2.19 µM | GI50 (SK-MEL-28 melanoma) 0.884 µM | GI50 (SK-MEL-2 melanoma) 4.22 µM | GI50 (NCI-H226 lung) 0.97 µM | GI50 (HS 578T breast) 10.2 µM | GI50 (UACC-257 melanoma) > 41.4 µM | GI50 (PC-3 prostate) 2.61 µM
19.4 µM: TGI (RXF 393 renal)
active: GI50 (HL-60(TB) leukemia) 0.298 µM | GI50 (SF-539 CNS) 0.0926 µM
36.9 µM: TGI (BT-549 breast)
37.2 µM: TGI (MALME-3M melanoma)
> 29.3 µM: TGI (LOX IMVI melanoma)
> 77.6 µM: TGI (EKVX NSCLC)
2.88 µM: TGI (OVCAR-3 ovarian)
> 73.2 µM: TGI (OVCAR-4 ovarian)
> 66.6 µM: TGI (SF-268 CNS)
> 65.6 µM: TGI (HCT-15 colon)
33.9 µM: TGI (ACHN renal)
32 µM: TGI (SK-MEL-28 melanoma)
> 63.6 µM: TGI (UACC-257 melanoma)
33.5 µM: TGI (MDA-MB-435)
5.55 µM: TGI (SK-MEL-5 melanoma)
> 87.1 µM: TGI (HS 578T breast)
47.7 µM: TGI (HOP-62 NSCLC)
> 62.4 µM: TGI (UACC-62 melanoma)
> 41.6 µM: TGI (CAKI-1 renal)
> 86.6 µM: TGI (KM12 colon)
14.7 µM: TGI (SF-539 CNS)
> 100 µM: TGI (NCI-H460 lung) | TGI (T-47D breast) | TGI (HCT-116 colon) | TGI (HT29 colon) | TGI (UO-31 renal) | TGI (TK-10 renal) | TGI (MCF7 breast) | TGI (SNB-19 CNS) | TGI (786-0 renal) | TGI (SW-620 colon) | TGI (OVCAR-5 ovarian) | TGI (NCI/ADR-RES ovarian) | TGI (IGROV1 ovarian) | TGI (CCRF-CEM leukemia) | TGI (HL-60(TB) leukemia) | TGI (DU-145 prostate) | TGI (MOLT-4 leukemia) | TGI (A549 NSCLC) | TGI (PC-3 prostate)

COC(=O)[C@@]1(C)CCC[C@]2(C)[C@H]3Cc4occc4[C@H](C)[C@@H]3CC[C@@]12O
> 100 µM: TGI (HOP-62 NSCLC) | TGI (T-47D breast) | TGI (HT29 colon) | TGI (CAKI-1 renal) | TGI (SF-268 CNS) | TGI (M14 melanoma) | TGI (UO-31 renal) | TGI (MDA-MB-231 breast) | TGI (HCT-15 colon) | TGI (UACC-62 melanoma) | TGI (TK-10 renal) | TGI (MCF7 breast) | TGI (SNB-19 CNS) | TGI (786-0 renal) | TGI (SW-620 colon) | TGI (OVCAR-5 ovarian) | TGI (NCI/ADR-RES ovarian) | TGI (OVCAR-4 ovarian) | TGI (COLO 205 colon) | TGI (IGROV1 ovarian) | TGI (CCRF-CEM leukemia) | TGI (SNB-75 CNS) | TGI (SK-OV-3 ovarian) | TGI (DU-145 prostate) | TGI (RPMI-8226 leukemia) | TGI (OVCAR-8 ovarian) | TGI (NCI-H23 lung) | TGI (A549 NSCLC) | TGI (SK-MEL-28 melanoma) | TGI (UACC-257 melanoma) | TGI (PC-3 prostate)
64.7 µM: TGI (NCI-H226 lung)
42.6 µM: TGI (LOX IMVI melanoma)
49.2 µM: TGI (NCI-H460 lung)
48 µM: TGI (SN12C renal)
52.4 µM: TGI (MALME-3M melanoma)
80.3 µM: TGI (MOLT-4 leukemia)
70.5 µM: TGI (BT-549 breast)
98.5 µM: TGI (NCI-H522 lung)
40.2 µM: TGI (SF-539 CNS)
42.5 µM: TGI (HCT-116 colon)
44 µM: TGI (U251 CNS)
89.7 µM: TGI (HCC-2998 colon)
37.4 µM: TGI (SK-MEL-5 melanoma)
38.7 µM: TGI (MDA-MB-435)
71.3 µM: TGI (EKVX NSCLC)
inactive: GI50 (HOP-62 NSCLC) 33.7 µM | GI50 (RXF 393 renal) 25 µM | GI50 (ACHN renal) 17.8 µM | GI50 (NCI-H460 lung) 16.3 µM | GI50 (OVCAR-3 ovarian) 17.3 µM | GI50 (T-47D breast) 26.4 µM | GI50 (HOP-92 NSCLC) 13.4 µM | GI50 (HCT-116 colon) 17.6 µM | GI50 (HT29 colon) 20.9 µM | GI50 (SK-MEL-5 melanoma) 21.1 µM | GI50 (A498 renal) 17.9 µM | GI50 (CAKI-1 renal) 41.8 µM | GI50 (SF-268 CNS) 34 µM | GI50 (SN12C renal) 21.1 µM | GI50 (M14 melanoma) 28.6 µM | GI50 (UO-31 renal) 37.5 µM | GI50 (MDA-MB-435) 16.7 µM | GI50 (U251 CNS) 18.1 µM | GI50 (MDA-MB-231 breast) 32.4 µM | GI50 (HCT-15 colon) 73.5 µM | GI50 (UACC-62 melanoma) 17.5 µM | GI50 (TK-10 renal) 24.5 µM | GI50 (MCF7 breast) 18.2 µM | GI50 (HCC-2998 colon) 34.3 µM | GI50 (SNB-19 CNS) 95.5 µM | GI50 (NCI-H522 lung) 31.4 µM | GI50 (786-0 renal) 45.8 µM | GI50 (SW-620 colon) 44.1 µM | GI50 (OVCAR-5 ovarian) 73.7 µM | GI50 (NCI/ADR-RES ovarian) 68.4 µM | GI50 (BT-549 breast) 26.9 µM | GI50 (OVCAR-4 ovarian) 92.3 µM | GI50 (COLO 205 colon) 33.1 µM | GI50 (MALME-3M melanoma) 21.3 µM | GI50 (LOX IMVI melanoma) 18.4 µM | GI50 (IGROV1 ovarian) 30 µM | GI50 (CCRF-CEM leukemia) 37.2 µM | GI50 (SNB-75 CNS) 55.6 µM | GI50 (SK-OV-3 ovarian) > 100 µM | GI50 (DU-145 prostate) 58.7 µM | GI50 (RPMI-8226 leukemia) 17.9 µM | GI50 (MOLT-4 leukemia) 17.3 µM | GI50 (OVCAR-8 ovarian) 35 µM | GI50 (NCI-H23 lung) 45.3 µM | GI50 (SF-295 CNS) 21.1 µM | GI50 (A549 NSCLC) 34.4 µM | GI50 (EKVX NSCLC) 27.7 µM | GI50 (KM12 colon) 16 µM | GI50 (SK-MEL-28 melanoma) > 100 µM | GI50 (SK-MEL-2 melanoma) 26.8 µM | GI50 (NCI-H226 lung) 20.9 µM | GI50 (HS 578T breast) 20.1 µM | GI50 (UACC-257 melanoma) 35.6 µM | GI50 (SF-539 CNS) 19.9 µM | GI50 (PC-3 prostate) 26.1 µM
46.6 µM: TGI (A498 renal)
57.9 µM: TGI (HOP-92 NSCLC)
72.4 µM: TGI (SK-MEL-2 melanoma)
32.8 µM: TGI (KM12 colon)
41.4 µM: TGI (HS 578T breast)
93.1 µM: TGI (RXF 393 renal)
59 µM: TGI (OVCAR-3 ovarian)
50.2 µM: TGI (ACHN renal)
66.8 µM: TGI (SF-295 CNS)
